Laboratory results as given in article PMC4640093, “Lipophilic prodrugs of nucleoside triphosphates as biochemical probes and potential antivirals” (Nature Communications, 2015).

Assays:
[1] = Chemical hydrolysis in PBS, pH 7.3; format: physicochemical; settings: PBS pH 7.3, 37 °C; for t1/2(2) PBS, pH=7.3: second hydrolysis step, half-lives of intermediate 4 to give d4TTP 19; for t1/2(1) PBS, pH=7.3: removal of first masking unit (half-lives of 3)
Protocol: Stock solutions (50 mM in DMSO-d6) of the appropriate compounds were prepared. After dilution of 11 μl with 100 μl Millipore water and 189 μl DMSO-d6 to 1.9 mM hydrolysis solutions the reaction was started by the addition of 300 μl PBS (50 mM, pH 7.3). The solution was incubated at 37 °C in a thermomixer. An initial aliquot (25 μl) was taken directly and analysed by analytical HPLC at 265–266 nm. Further aliquots were taken for monitoring the kinetic hydrolysis. The exponential decay curves (pseudo-first order) based on absolute integral values were calculated with commercially available software (OriginPro 9.0G) and yielded the half-lives t1/2(1) and t1/2(2) of the prodrugs via one determination.

pig liver esterase (PLE) = assay: Enzymatic hydrolysis with pig liver esterase (PLE) in PBS; format: in vitro ADME; settings: PLE in PBS pH 7.3, 37 °C; for t1/2(2) PLE: second hydrolysis step, half-lives of intermediate 4; for t1/2(1) PLE: removal of first masking unit (half-lives of 3)
Protocol: Furthermore, 140 μl of the 6.0 mM solution was diluted with 105 μl DMSO-d6 and 700 μl 50 mM PBS buffer. The reaction was started by addition of 52.5 μl of PLE in PBS buffer (3 mg ml^−1) and the mixture was incubated at 37 °C in a thermomixer. At different times, aliquots (125 μl) were taken and treated as follows: (a) for 3a–g,l,m and 4a,e the reaction was stopped by addition to 132.5 μl MeOH. […] (b) For 3h,i,k,n and 4j, the sample was directly frozen in liquid nitrogen.

[2] = Enzyme-catalysed hydrolysis in CEM cell extracts; settings: for t1/2(1) CEM: human CEM cell extract, 37 °C
Protocol: The hydrolysis mixtures were analysed by means of analytical RP-18-HPLC.
A volume of 10 μl of the appropriate 50 mM DMSO-d6 stock solution was diluted to 6.0 mM hydrolysis solution by addition of 73.3 μl DMSO-d6. Seven different samples including 10 μl water and 10 μl hydrolysis solution were prepared. The reaction was started by addition of 50 μl human CEM cell extract and the mixture was incubated at 37 °C for different time periods of hydrolysis. The work-up depended on the particular compound: (a) for 3a–f,l,m,p and 4a,e the reactions were stopped by addition of 150 μl MeOH. The solution was kept on ice for 5 min followed by centrifugation for 5 min (13,000 r.p.m.). The supernatants were filtered (Chromafil RC-20/15 MS, 0.2 μm) and stored in liquid nitrogen. (b) For 3g–i,k,n and 4j, the samples were directly frozen in liquid nitrogen. The solution was defrosted followed by ultrasonication for 10 min. After centrifugation for 5 min the supernatants were filtered (Chromafil AO-20/3, 0.2 μm) and stored at −196 °C. (c) For 3j the mixture was diluted with 70 μl THF (HPLC grade) and frozen in liquid nitrogen followed by defrosting, ultrasonication, centrifugation, filtration and stored as described for (b). Samples were defrosted and 50–80 μl were subjected to HPLC analysis.
Human CD4^+ T-lymphocyte CEM cells were grown in RPMI-1640-based cell culture medium to a final density of ∼3·10^6 cells ml^−1. Then, cells were centrifuged for 10 min at 1,250 r.p.m. at 4 °C, washed twice with cold PBS and the pellet was resuspended at 10^8 cells ml^−1 and sonicated (Hielscher Ultrasound Techn., 100% amplitude, three·times for 10 s) to destroy cell integrity. The resulting cell suspension was then centrifuged at 10,000 r.p.m. to remove cell debris, and the supernatant divided into aliquots before being frozen at −80 °C and used.

HIV-1(IIIB) = assay: Anti-HIV activity assay, HIV-1 in wild-type CEM/0 cells; format: cell-based; settings: HIV-induced giant cell formation, mean±s.d., n=2–3
Protocol: (§1) Inhibition of HIV-1(IIIB)- and HIV-2(ROD)-induced cytopathicity in wild-type CEM/0 and TK-deficient CEM/TK^− cell cultures was measured in microtitre 96-well plates containing ∼3 × 10^5 CEM cells ml^−1 infected with 100 CCID50 of HIV per millilitre and containing appropriate dilutions of the test compounds. After 4−5 days of incubation at 37 °C in a CO2-controlled humidified atmosphere, CEM giant (syncytium) cell formation was examined microscopically. The EC50 (50% effective concentration) was defined as the compound concentration required to inhibit HIV-induced giant cell formation by 50%.

HIV-2(ROD) [3] = assay: Anti-HIV activity assay, HIV-2 in wild-type CEM/0 cells; format: cell-based; settings: wild-type CEM cells, HIV-induced giant cell formation; mean±s.d., n=2–3; read-out: EC50 CEM HIV-2
Protocol: as §1

CD4+ T-cell (CEM) = assay: Cytotoxicity: inhibition of CEM cell proliferation; format: cell-based, human; settings: 50% cytostatic concentration, mean±s.d., n=2–3
HIV-2(ROD) [4] = assay: Anti-HIV activity assay, HIV-2 in TK-deficient CEM/TK− cells; format: cell-based; settings: thymidine kinase-deficient CEM/TK− cells; mean±s.d., n=2–3
Protocol: as §1

Row | Compound | t1/2(2) PBS, pH=7.3 [1] | t1/2(2) PLE (pig liver esterase (PLE)) | t1/2(1) CEM [2] | EC50 (HIV-1(IIIB)) | t1/2(1) PBS, pH=7.3 [1] | EC50 (HIV-2(ROD) [3]) | t1/2(1) PLE (pig liver esterase (PLE)) | CC50 (CD4+ T-cell (CEM)) | EC50 (HIV-2(ROD) [4]) | t1/2 in cell extracts ([2]; degradation of the nucleotide in CEM cell extracts)
1 | CCCCCCCCC(=O)Oc1ccc(COP(=O)(O)OP(=O)(O)OP(=O)(O)OC[C@@H]2C=C[C@H](n3cc(C)c(=O)[nH]c3=O)O2)cc1 [4e, γ-Mono-(4-nonanoyloxybenzyl)-d4TTP] | 237 h | 1.5 h | 1.8 h |  |  |  |  |  |  | 
2 | CCCCCCC(=O)Oc1ccc(COP(=O)(OCc2ccc(OC(=O)CCCCCC)cc2)OP(=O)(O)OP(=O)(O)OC[C@@H]2C=C[C@H](n3cc(C)c(=O)[nH]c3=O)O2)cc1 [3d, γ-Bis-(4-heptanoyloxybenzyl)-d4TTP] | 350 h | 1.6 h | 0.98 h | 360 ± 60 nM | 26 h | 940 ± 160 nM | 0.013 h | 74000 ± 2000 nM | 10000 nM | 
3 | CCCCCCCCCCCCCCCCCC(=O)Oc1ccc(COP(=O)(O)OP(=O)(O)OP(=O)(O)OC[C@@H]2C=C[C@H](n3cc(C)c(=O)[nH]c3=O)O2)cc1 [4j, γ-Mono-(4-octadecanoyloxybenzyl)-d4TTP] | 637 h | 57 h | 4.6 h |  |  |  |  |  |  | 
4 | COC(=O)Oc1ccc(COP(=O)(OCc2ccc(OC(=O)OC)cc2)OP(=O)(O)OP(=O)(O)OC[C@@H]2C=C[C@H](n3cc(C)c(=O)[nH]c3=O)O2)cc1 [3l, γ-Bis-(4-methyloxycarbonyloxybenzyl)-d4TTP] | 200 h | 177 h | 0.97 h | 400 nM | 24 h | 920 ± 120 nM | 3.8 h | 16000 ± 1000 nM | > 10000 nM | 
5 | CCCCCCCCCCCCOC(=O)Oc1ccc(COP(=O)(OCc2ccc(OC(=O)OCCCCCCCCCCCC)cc2)OP(=O)(O)OP(=O)(O)OC[C@@H]2C=C[C@H](n3cc(C)c(=O)[nH]c3=O)O2)cc1 [3n, γ-Bis-(4-dodecyloxycarbonyloxybenzyl)-d4TTP] | 631 h |  | 3.0 h | 500 ± 140 nM | 99 h | 690 ± 210 nM | 44 h | 41000 ± 12000 nM | 1260 nM | 
6 | CCCCC(=O)Oc1ccc(COP(=O)(OCc2ccc(OC(=O)CCCC)cc2)OP(=O)(O)OP(=O)(O)OC[C@@H]2C=C[C@H](n3cc(C)c(=O)[nH]c3=O)O2)cc1 [3c, γ-Bis-(4-pentanoyloxybenzyl)-d4TTP] | 270 h | 7.7 h | 0.43 h | 400 nM | 22 h | 1050 ± 300 nM | 0.063 h | 58000 ± 3000 nM | > 10000 nM | 
7 | CCCCCCCCCCCCCCCC(=O)Oc1ccc(COP(=O)(OCc2ccc(OC(=O)CCCCCCCCCCCCCCC)cc2)OP(=O)(O)OP(=O)(O)OC[C@@H]2C=C[C@H](n3cc(C)c(=O)[nH]c3=O)O2)cc1 [3i, γ-Bis-(4-hexadecanoyloxybenzyl)-d4TTP] | 462 h |  | 5.3 h | 620 ± 300 nM | 73 h | 660 ± 80 nM | 33 h | 61000 ± 3000 nM | 720 ± 160 nM | 
8 | CCC(=O)Oc1ccc(COP(=O)(OCc2ccc(OC(=O)CC)cc2)OP(=O)(O)OP(=O)(O)OC[C@@H]2C=C[C@H](n3cc(C)c(=O)[nH]c3=O)O2)cc1 [3b, γ-Bis-(4-propanoyloxybenzyl)-d4TTP] | 150 h | 33 h | 0.12 h | 460 ± 210 nM | 17 h | 1160 ± 150 nM | 0.42 h | 57000 ± 6000 nM | > 10000 nM | 
9 | CCCCCCCCCCCCOC(=O)N(C)CCN(C)C(=O)Oc1ccc(COP(=O)(OCc2ccc(OC(=O)N(C)CCN(C)C(=O)OCCCCCCCCCCCC)cc2)OP(=O)(O)OP(=O)(O)OCC2C=CC(n3cc(C)c(=O)[nH]c3=O)O2)cc1 (centres unmarked) [3q, γ-Bis-(4-(dodecyl-ethane-1,2-diylbis(methylcarbamate))-oxybenzyl)-d4TTP] |  |  |  |  | 48 h |  |  |  |  | 
10 | CCCCCCCCCC(=O)Oc1ccc(COP(=O)(OCc2ccc(OC(=O)CCCCCCCCC)cc2)OP(=O)(O)OP(=O)(O)OC[C@@H]2C=C[C@H](n3cc(C)c(=O)[nH]c3=O)O2)cc1 [3f, γ-Bis-(4-decanoyloxybenzyl)-d4TTP] | 350 h | 3.0 h | 2.8 h | 250 ± 70 nM | 44 h | 330 ± 30 nM | 0.082 h | 34000 ± 5000 nM | 500 ± 140 nM | 
11 | CCCCCCCCOC(=O)Oc1ccc(COP(=O)(OCc2ccc(OC(=O)OCCCCCCCC)cc2)OP(=O)(O)OP(=O)(O)OC[C@@H]2C=C[C@H](n3cc(C)c(=O)[nH]c3=O)O2)cc1 [3m, γ-Bis-(4-octyloxycarbonyloxybenzyl)-d4TTP] | 590 h | 17 h | 2.6 h | 360 ± 60 nM | 82 h | 470 ± 100 nM | 0.12 h | 51000 ± 5000 nM | 1260 nM | 
12 | CCCCCCCC/C=C\CCCCCCCC(=O)Oc1ccc(COP(=O)(OCc2ccc(OC(=O)CCCCCCC/C=C\CCCCCCCC)cc2)OP(=O)(O)OP(=O)(O)OC[C@@H]2C=C[C@H](n3cc(C)c(=O)[nH]c3=O)O2)cc1 [3k, γ-Bis(4-(Z)-octadec-9-enoyloxybenzyl)-d4TTP] | 92 h |  | 4.3 h | 300 ± 10 nM | 27 h | 470 ± 100 nM | 42 h | 25000 ± 1000 nM | 930 ± 470 nM | 
13 | CC(=O)Oc1ccc(COP(=O)(O)OP(=O)(O)OP(=O)(O)OC[C@@H]2C=C[C@H](n3cc(C)c(=O)[nH]c3=O)O2)cc1 [4a, γ-Mono-(4-acetyloxybenzyl)-d4TTP] | 95 h | 108 h | 0.040 h |  |  |  |  |  |  | 
14 | CCCCCCCCOC(=O)N(C)CCN(C)C(=O)Oc1ccc(COP(=O)(OCc2ccc(OC(=O)N(C)CCN(C)C(=O)OCCCCCCCC)cc2)OP(=O)(O)OP(=O)(O)OCC2C=CC(n3cc(C)c(=O)[nH]c3=O)O2)cc1 (centres unmarked) [3p, γ-Bis-(4-(octyl-ethane-1,2-diylbis(methylcarbamate))-oxybenzyl)-d4TTP] |  |  | 5.6 h |  | 48 h |  |  |  |  | 
15 | Cc1cn([C@H]2C=C[C@@H](COP(=O)(O)OP(=O)(O)OP(=O)(O)O)O2)c(=O)[nH]c1=O [d4TTP 19, reference compound] |  |  |  |  |  |  |  |  |  | 0.63 h
16 | CCCCOC(=O)N(C)CCN(C)C(=O)Oc1ccc(COP(=O)(OCc2ccc(OC(=O)N(C)CCN(C)C(=O)OCCCC)cc2)OP(=O)(O)OP(=O)(O)OCC2C=CC(n3cc(C)c(=O)[nH]c3=O)O2)cc1 (centres unmarked) [3o, γ-Bis-(4-(butyl-ethane-1,2-diylbis(methylcarbamate))-oxybenzyl)-d4TTP] |  |  |  |  | 27 h |  |  |  |  | 
